Data as given in patent US20070249548A1, “Nucleoside Analog or Salts of the Same” (GIFU UNIVERSITY, priority 2004, published 2007).
[TBDPS-acyc] = code of the source, not defined here; d = 2'-deoxy (DNA)

Test system: oligonucleotide made from sequence number 2
Assay: Stability of the double strand (Tm value)
Format: physicochemical
Details: double strand with oligonucleotide of sequence number 2; annealing buffer 10 mM sodium phosphate (pH 7.0), 1 M NaCl

Row | Substance | Tm value [°C]
1 | Example 10: Double-stranded oligonucleotide analog composed of the oligonucleotide analog of sequence number 1 and the oligonucleotide of sequence number 2 (chain 1 AAGGAAAAGAGGAAAGA; chain 2 TCTTTCCTCTTTTCCTT; chain 1: sugars from the 5' end d7 [TBDPS-acyc]1 d9, backbone not given here; chain 2: DNA, backbone not given here) | 49.1
2 | Comparative Example 2: Double-stranded oligonucleotide composed of the oligonucleotides made from sequence number 3 and sequence number 2 (chain 1 AAGGAAAAGAGGAAAGA; chain 2 TCTTTCCTCTTTTCCTT; DNA, backbone not given here) | 57.7
